IC50 data for nine molecules are collected here from ChEMBL document CHEMBL1140819, “Protected aminooxyprolines for expedited library synthesis: application to Tsg101-directed proline-oxime containing peptides” (Bioorg Med Chem Lett, 2008).

*1 amine or outer side, *2 acyl side, *3 side chain or, on linkers, in order; H or OH if unused. Where a SMILES comes first, the peptide text is derived from it. [ ]: non-standard residue; d: D form. The star is where a group is joined. ξ: configuration not given here. Fluorescein(5-NHCS) = O=C1OC2(c3ccc(O)cc3Oc3cc(O)ccc32)c2cc(NC(=S)*)ccc21; X33 = CC(/C=N\O[C@H]1C[C@@H](C(=O)[*:2])N([*:1])C1)=C\c1ccccc1; X5 = CC(/C=N\O[C@@H]1C[C@@H](C(=O)[*:2])N([*:1])C1)=C\c1ccccc1; X43 = COc1ccc(/C=N\O[C@H]2CCN([*:1])[C@@H]2C(=O)[*:2])cc1OC; X16 = COc1ccc(/C=N\O[C@H]2CCN([*:1])[C@@H]2C(=O)[*:2])cc1O; X37 = O=C([C@@H]1C[C@@H](O/N=C\c2ccc(CO)o2)CN1[*:1])[*:2]; X24 = O=C([C@@H]1[C@@H](O/N=C\c2ccccc2)CCN1[*:1])[*:2]; X4 = O=C([C@@H]1[C@@H](O/N=C\c2ccncc2)CCN1[*:1])[*:2]; X41 = CCCCC/C=N\O[C@@H]1C[C@@H](C(=O)[*:2])N([*:1])C1; X3 = CCCCC/C=N\O[C@H]1CCN([*:1])[C@@H]1C(=O)[*:2]; ξPip = O=C(O)C1CCCCN1; Ava = NCCCCC(=O)O

Broadly, the IC50 is the concentration that gives 50% inhibition. High values mean a need for much substance, low ones inhibition by little substance.

The assay deals with T1, Tumor susceptibility gene 101 protein (Homo sapiens, UniProt Q99816).
T1 sequence (Q99816 whole entry): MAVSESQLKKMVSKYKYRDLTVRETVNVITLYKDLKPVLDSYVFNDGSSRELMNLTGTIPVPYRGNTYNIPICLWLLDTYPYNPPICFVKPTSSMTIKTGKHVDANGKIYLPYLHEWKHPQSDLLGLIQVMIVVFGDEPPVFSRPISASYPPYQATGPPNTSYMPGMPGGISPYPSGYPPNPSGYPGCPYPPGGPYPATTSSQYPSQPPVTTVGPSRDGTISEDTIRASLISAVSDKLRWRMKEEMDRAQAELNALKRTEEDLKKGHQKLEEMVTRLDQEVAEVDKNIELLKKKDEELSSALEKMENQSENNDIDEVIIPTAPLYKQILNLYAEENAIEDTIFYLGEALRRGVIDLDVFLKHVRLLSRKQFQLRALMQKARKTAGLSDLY
Nature of the assay: Binding affinity to Tsg101.
`CCCCC/C=N\O[C@@H]1C[C@@H](C(=O)N[C@@H](CCC(=O)O)C(=O)N[C@@H](CCC(=O)O)C(N)=O)N(C(=O)C2CCCCN2C(=O)[C@H](C)NC(=O)[C@@H](NC(=O)[C@@H]2CCCN2C(=O)[C@H](CCC(=O)O)NC(=O)[C@@H]2CCCN2C(=O)CCCCNC(=S)Nc2ccc3c(c2)C2(OC3=O)c3ccc(O)cc3Oc3cc(O)ccc32)[C@@H](C)O)C1` (some centres undefined) ({Fluorescein(5-NHCS)-Ava}-PEPTA[ξPip][X41]EE-NH2) gave an IC50 of 41 µM. `C[C@H](NC(=O)[C@@H](NC(=O)[C@@H]1CCCN1C(=O)[C@H](CCC(=O)O)NC(=O)[C@@H]1CCCN1C(=O)CCCCNC(=S)Nc1ccc2c(c1)C1(OC2=O)c2ccc(O)cc2Oc2cc(O)ccc21)[C@@H](C)O)C(=O)N1CCCCC1C(=O)N1CC[C@H](O/N=C\c2ccncc2)[C@H]1C(=O)N[C@@H](CCC(=O)O)C(=O)N[C@@H](CCC(=O)O)C(N)=O` (some centres undefined) ({Fluorescein(5-NHCS)-Ava}-PEPTA[ξPip][X4]EE-NH2): the IC50 was determined as 22 µM. This IC50 lies about 1.9-fold lower than the previous one. The value for `COc1ccc(/C=N\O[C@H]2CCN(C(=O)C3CCCCN3C(=O)[C@H](C)NC(=O)[C@@H](NC(=O)[C@@H]3CCCN3C(=O)[C@H](CCC(=O)O)NC(=O)[C@@H]3CCCN3C(=O)CCCCNC(=S)Nc3ccc4c(c3)C3(OC4=O)c4ccc(O)cc4Oc4cc(O)ccc43)[C@@H](C)O)[C@@H]2C(=O)N[C@@H](CCC(=O)O)C(=O)N[C@@H](CCC(=O)O)C(N)=O)cc1OC` (some centres undefined) ({Fluorescein(5-NHCS)-Ava}-PEPTA[ξPip][X43]EE-NH2) was 22 µM; that for `COc1ccc(/C=N\O[C@H]2CCN(C(=O)C3CCCCN3C(=O)[C@H](C)NC(=O)[C@@H](NC(=O)[C@@H]3CCCN3C(=O)[C@H](CCC(=O)O)NC(=O)[C@@H]3CCCN3C(=O)CCCCNC(=S)Nc3ccc4c(c3)C3(OC4=O)c4ccc(O)cc4Oc4cc(O)ccc43)[C@@H](C)O)[C@@H]2C(=O)N[C@@H](CCC(=O)O)C(=O)N[C@@H](CCC(=O)O)C(N)=O)cc1O` (some centres undefined) ({Fluorescein(5-NHCS)-Ava}-PEPTA[ξPip][X16]EE-NH2) was 13 µM.

For the molecule `CCCCC/C=N\O[C@H]1CCN(C(=O)C2CCCCN2C(=O)[C@H](C)NC(=O)[C@@H](NC(=O)[C@@H]2CCCN2C(=O)[C@H](CCC(=O)O)NC(=O)[C@@H]2CCCN2C(=O)CCCCNC(=S)Nc2ccc3c(c2)C2(OC3=O)c3ccc(O)cc3Oc3cc(O)ccc32)[C@@H](C)O)[C@@H]1C(=O)N[C@@H](CCC(=O)O)C(=O)N[C@@H](CCC(=O)O)C(N)=O` (some centres undefined) ({Fluorescein(5-NHCS)-Ava}-PEPTA[ξPip][X3]EE-NH2), the IC50 came out at 23 µM. The value for `C[C@H](NC(=O)[C@@H](NC(=O)[C@@H]1CCCN1C(=O)[C@H](CCC(=O)O)NC(=O)[C@@H]1CCCN1C(=O)CCCCNC(=S)Nc1ccc2c(c1)C1(OC2=O)c2ccc(O)cc2Oc2cc(O)ccc21)[C@@H](C)O)C(=O)N1CCCCC1C(=O)N1CC[C@H](O/N=C\c2ccccc2)[C@H]1C(=O)N[C@@H](CCC(=O)O)C(=O)N[C@@H](CCC(=O)O)C(N)=O` (some centres undefined) ({Fluorescein(5-NHCS)-Ava}-PEPTA[ξPip][X24]EE-NH2) was 15 µM; that for `CC(/C=N\O[C@H]1C[C@@H](C(=O)N[C@@H](CCC(=O)O)C(=O)N[C@@H](CCC(=O)O)C(N)=O)N(C(=O)C2CCCCN2C(=O)[C@H](C)NC(=O)[C@@H](NC(=O)[C@@H]2CCCN2C(=O)[C@H](CCC(=O)O)NC(=O)[C@@H]2CCCN2C(=O)CCCCNC(=S)Nc2ccc3c(c2)C2(OC3=O)c3ccc(O)cc3Oc3cc(O)ccc32)[C@@H](C)O)C1)=C\c1ccccc1` (some centres undefined) ({Fluorescein(5-NHCS)-Ava}-PEPTA[ξPip][X33]EE-NH2) was 58 µM; that for `C[C@H](NC(=O)[C@@H](NC(=O)[C@@H]1CCCN1C(=O)[C@H](CCC(=O)O)NC(=O)[C@@H]1CCCN1C(=O)CCCCNC(=S)Nc1ccc2c(c1)C1(OC2=O)c2ccc(O)cc2Oc2cc(O)ccc21)[C@@H](C)O)C(=O)N1CCCCC1C(=O)N1C[C@H](O/N=C\c2ccc(CO)o2)C[C@H]1C(=O)N[C@@H](CCC(=O)O)C(=O)N[C@@H](CCC(=O)O)C(N)=O` (some centres undefined) ({Fluorescein(5-NHCS)-Ava}-PEPTA[ξPip][X37]EE-NH2) was 26 µM.

For `CC(/C=N\O[C@@H]1C[C@@H](C(=O)N[C@@H](CCC(=O)O)C(=O)N[C@@H](CCC(=O)O)C(N)=O)N(C(=O)C2CCCCN2C(=O)[C@H](C)NC(=O)[C@@H](NC(=O)[C@@H]2CCCN2C(=O)[C@H](CCC(=O)O)NC(=O)[C@@H]2CCCN2C(=O)CCCCNC(=S)Nc2ccc3c(c2)C2(OC3=O)c3ccc(O)cc3Oc3cc(O)ccc32)[C@@H](C)O)C1)=C\c1ccccc1` (some centres undefined) ({Fluorescein(5-NHCS)-Ava}-PEPTA[ξPip][X5]EE-NH2), the IC50 is 13 µM.
